Experimental data as given in patent US20180057507A1, “INHIBITORS OF DUAL LEUCINE ZIPPER (DLK) KINASE FOR THE TREATMENT OF DISEASE” (Board of Regents, The University of Texas System, priority 2016, published 2018).

Legend:
human DLK [1] = molecular target: T1, human DLK (Homo sapiens, UniProt Q12852); test: Phospho-cJun Cellular Assay; format: cell-based; parameters: expressed in transfected cells; conditions: HEK293 cells stably transfected with Dox-inducible human DLK; p-cJun (Ser63); 5 h compound incubation
T1 sequence (Q12852 1-859): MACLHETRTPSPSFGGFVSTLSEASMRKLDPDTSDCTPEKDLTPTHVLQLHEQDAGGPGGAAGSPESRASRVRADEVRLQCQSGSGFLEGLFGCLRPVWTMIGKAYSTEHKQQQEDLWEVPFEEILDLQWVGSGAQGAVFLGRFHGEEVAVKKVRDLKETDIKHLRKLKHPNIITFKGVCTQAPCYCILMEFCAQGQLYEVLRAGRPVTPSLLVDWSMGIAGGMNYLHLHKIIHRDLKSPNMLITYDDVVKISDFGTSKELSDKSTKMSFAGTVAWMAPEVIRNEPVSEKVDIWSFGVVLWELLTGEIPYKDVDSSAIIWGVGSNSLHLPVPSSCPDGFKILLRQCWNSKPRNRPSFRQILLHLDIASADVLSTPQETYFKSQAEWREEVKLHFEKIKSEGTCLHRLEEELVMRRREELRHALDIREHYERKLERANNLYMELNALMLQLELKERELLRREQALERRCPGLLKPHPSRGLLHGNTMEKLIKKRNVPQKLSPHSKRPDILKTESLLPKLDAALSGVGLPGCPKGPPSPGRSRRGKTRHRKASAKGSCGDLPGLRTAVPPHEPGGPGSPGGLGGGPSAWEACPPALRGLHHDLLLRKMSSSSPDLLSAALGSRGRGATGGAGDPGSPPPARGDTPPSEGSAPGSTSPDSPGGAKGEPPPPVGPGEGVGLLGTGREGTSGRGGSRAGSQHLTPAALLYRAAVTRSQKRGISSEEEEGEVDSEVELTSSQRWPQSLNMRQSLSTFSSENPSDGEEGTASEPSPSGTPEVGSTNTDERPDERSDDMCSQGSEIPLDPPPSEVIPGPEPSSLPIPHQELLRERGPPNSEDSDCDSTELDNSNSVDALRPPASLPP
Description: Phospho-cJun Cellular Assay
HEK293 cells stably transfected with a Dox-inducible human DLK were plated into a 384-well plate in 20 μl (40,000 cells/well) of DMEM medium (without phenol red) containing 10% fetal bovine serum, 1.5 μg/ml doxycycline and 1 μg/ml puromycin. The cells as negative control were grown in the absence of doxycycline. The plate was incubated at 37° C., 5% CO2 for 20 h, before DMSO (control) or compounds diluted in medium were added. The cells were incubated at 37° C. for an additional 5 h, followed by lysis and the addition detection antibodies from p-cJun (Ser63) cellular assay kit (Cisbio) per manufacturer protocol. The standard dose response curves were fitted by Genedata Screener software using the variable-slope model: Signal=Signalnegative control+(SignalDMSO control−Signalnegative control)/(1+(IC50/Dose)̂Hill slope). Only signal and dose in the equation were treated as known values.

human DLK [2] = molecular target: T1, human DLK; test: DLK Kd Determinations (KINOMEscan KdELECT, DiscoveRx); parameters: full length of human DLK (amino acids 1-859); host or cells: transiently transfected HEK293 cells; unpurified extract; conditions: fusion protein of full length human DLK (amino acids 1-859) and NFkB DNA binding domain; qPCR readout; duplicate
In short: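 Kd values were fitted by Hill equation (slope −1) from duplicate 11-point 3-fold dilutions starting at 30,000 nM. Bead-immobilized ligand competed with compound for DNA-tagged full-length human DLK fusion in HEK293 extract (final DMSO 0.9%, 1 h, room temperature), with qPCR readout of bound kinase.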

SMILES | IC50 (human DLK [1]) | Kd (human DLK [2])
CC(C)c1nc(-c2cnc(N)c(OC(F)F)c2)cn1[C@H]1[C@@H]2CC(N3CCN(C)CC3)C[C@@H]21 (single isomer, unassigned) [Example 145a, 3-(difluoromethoxy)-5-(2-isopropyl-1-(3-(4-methylpiperazin-1-yl)bicyclo[3.1.0]hexan-6-yl)-1H-imidazol-4-yl)pyridin-2-amine] | 1200 nM | 39 nM
CC(C)c1nc(-c2cnc(N)c(OC(F)F)c2)cn1[C@H]1[C@@H]2CC(N3CCN(C)CC3)C[C@@H]21 (single isomer, unassigned) [Example 145b, 3-(difluoromethoxy)-5-(2-isopropyl-1-(3-(4-methylpiperazin-1-yl)bicyclo[3.1.0]hexan-6-yl)-1H-imidazol-4-yl)pyridin-2-amine] | 889 nM | 50 nM
CN1CCN(C2C[C@@H]3[C@H](C2)[C@H]3n2cc(-c3cnc(N)c(OC(F)(F)F)c3)nc2CC2CC2)CC1 (single isomer, unassigned) [Example 151a, 5-(2-(cyclopropylmethyl)-1-(3-(4-methylpiperazin-1-yl)bicyclo[3.1.0]hexan-6-yl)-1H-imidazol-4-yl)-3-(trifluoromethoxy)pyridin-2-amine] | 994 nM | 26 nM
Nc1ncc(-c2cn([C@H]3[C@@H]4CC(N5CCN(CCF)CC5)C[C@@H]43)c(CC3CC3)n2)cc1OC(F)(F)F (single isomer, unassigned) [Example 152a, 5-(2-(cyclopropylmethyl)-1-(3-(4-(2-fluoroethyl)piperazin-1-yl)bicyclo[3.1.0]hexan-6-yl)-1H-imidazol-4-yl)-3-(trifluoromethoxy)pyridin-2-amine] | 1350 nM | 37 nM
Nc1ncc(-c2cn([C@H]3[C@@H]4CC(N5CCN(CCF)CC5)C[C@@H]43)c(CC3CC3)n2)cc1OC(F)(F)F (single isomer, unassigned) [Example 152b, 5-(2-(cyclopropylmethyl)-1-(3-(4-(2-fluoroethyl)piperazin-1-yl)bicyclo[3.1.0]hexan-6-yl)-1H-imidazol-4-yl)-3-(trifluoromethoxy)pyridin-2-amine] | 1150 nM | 13 nM
Nc1ncc(-c2cn([C@H]3[C@@H]4CC(N5CCN(CCF)CC5)C[C@@H]43)c(C3CC3)n2)cc1C(F)(F)F (single isomer, unassigned) [Example 153a, 5-(2-cyclopropyl-1-(3-(4-(2-fluoroethyl)piperazin-1-yl)bicyclo[3.1.0]hexan-6-yl)-1H-imidazol-4-yl)-3-(trifluoromethyl)pyridin-2-amine] | 891 nM | 22 nM
CC(C)c1nc(-c2cnc(N)c(C(F)(F)F)c2)cn1[C@H]1[C@@H]2CC(N3CCN(CCF)CC3)C[C@@H]21 (single isomer, unassigned) [Example 155a, 5-(1-(3-(4-(2-fluoroethyl)piperazin-1-yl)bicyclo[3.1.0]hexan-6-yl)-2-isopropyl-1H-imidazol-4-yl)-3-(trifluoromethyl)pyridin-2-amine] | 1190 nM | 23 nM
CC(C)c1nc(-c2cnc(N)c(C(F)(F)F)c2)cn1[C@H]1[C@@H]2CC(N3CCN(CCF)CC3)C[C@@H]21 (single isomer, unassigned) [Example 155b, 5-(1-(3-(4-(2-fluoroethyl)piperazin-1-yl)bicyclo[3.1.0]hexan-6-yl)-2-isopropyl-1H-imidazol-4-yl)-3-(trifluoromethyl)pyridin-2-amine] | 1160 nM | 4.5 nM

These reach a lower IC50 (human DLK [1]). Values come first.

IC50 (human DLK [1]) | Kd (human DLK [2]) | SMILES
636 nM | 37.5 nM | C[C@H]1COCCN1C1C[C@@H]2[C@H](C1)[C@H]2n1cc(-c2cnc(N)c(C(F)(F)F)c2)nc1C1CC1 (single isomer, unassigned) [Example 140b]
655 nM | 26 nM | Nc1ncc(-c2cn([C@H]3[C@@H]4CC(N5CCCOCC5)C[C@@H]43)c(C3CC3)n2)cc1C(F)(F)F (single isomer, unassigned) [Example 141a, 5-(1-(3-(1,4-oxazepan-4-yl)bicyclo[3.1.0]hexan-6-yl)-2-cyclopropyl-1H-imidazol-4-yl)-3-(trifluoromethyl)pyridin-2-amine]
587 nM | 16 nM | Nc1ncc(-c2cn([C@H]3[C@@H]4CC(N5CCCOCC5)C[C@@H]43)c(C3CC3)n2)cc1C(F)(F)F (single isomer, unassigned) [Example 141b, 5-(1-(3-(1,4-oxazepan-4-yl)bicyclo[3.1.0]hexan-6-yl)-2-cyclopropyl-1H-imidazol-4-yl)-3-(trifluoromethyl)pyridin-2-amine]
376 nM | 6.5 nM | CC(C)Cc1nc(-c2cnc(N)c(C(F)(F)F)c2)cn1[C@H]1[C@@H]2CC(N3CCN(C)CC3)C[C@@H]21 (single isomer, unassigned) [Example 146a, 5-(2-isobutyl-1-(3-(4-methylpiperazin-1-yl)bicyclo[3.1.0]hexan-6-yl)-1H-imidazol-4-yl)-3-(trifluoromethyl)pyridin-2-amine]
346 nM | 4.5 nM | CC(C)Cc1nc(-c2cnc(N)c(C(F)(F)F)c2)cn1[C@H]1[C@@H]2CC(N3CCN(C)CC3)C[C@@H]21 (single isomer, unassigned) [Example 146b, 5-(2-isobutyl-1-(3-(4-methylpiperazin-1-yl)bicyclo[3.1.0]hexan-6-yl)-1H-imidazol-4-yl)-3-(trifluoromethyl)pyridin-2-amine]
826 nM | 20 nM | CN1CCN(C2C[C@@H]3[C@H](C2)[C@H]3n2cc(-c3cnc(N)c(OC(F)(F)F)c3)nc2CC2CC2)CC1 (single isomer, unassigned) [Example 151b, 5-(2-(cyclopropylmethyl)-1-(3-(4-methylpiperazin-1-yl)bicyclo[3.1.0]hexan-6-yl)-1H-imidazol-4-yl)-3-(trifluoromethoxy)pyridin-2-amine]
809 nM | 9 nM | Nc1ncc(-c2cn([C@H]3[C@@H]4CC(N5CCN(CCF)CC5)C[C@@H]43)c(C3CC3)n2)cc1C(F)(F)F (single isomer, unassigned) [Example 153b, 5-(2-cyclopropyl-1-(3-(4-(2-fluoroethyl)piperazin-1-yl)bicyclo[3.1.0]hexan-6-yl)-1H-imidazol-4-yl)-3-(trifluoromethyl)pyridin-2-amine]
761 nM | 28 nM | Nc1ncc(-c2cn([C@H]3[C@@H]4CC(N5CCN(CCF)CC5)C[C@@H]43)c(C3CC3)n2)cc1OC(F)(F)F (single isomer, unassigned) [Example 154a, 5-(2-cyclopropyl-1-(3-(4-(2-fluoroethyl)piperazin-1-yl)bicyclo[3.1.0]hexan-6-yl)-1H-imidazol-4-yl)-3-(trifluoromethoxy)pyridin-2-amine]
597 nM | 17 nM | Nc1ncc(-c2cn([C@H]3[C@@H]4CC(N5CCN(CCF)CC5)C[C@@H]43)c(C3CC3)n2)cc1OC(F)(F)F (single isomer, unassigned) [Example 154b, 5-(2-cyclopropyl-1-(3-(4-(2-fluoroethyl)piperazin-1-yl)bicyclo[3.1.0]hexan-6-yl)-1H-imidazol-4-yl)-3-(trifluoromethoxy)pyridin-2-amine]
747 nM | 30 nM | CC(C)c1nc(-c2cnc(N)c(OC(F)(F)F)c2)cn1[C@H]1[C@@H]2CC(N3CCN(CCF)CC3)C[C@@H]21 (single isomer, unassigned) [Example 156a, 5-(1-(3-(4-(2-fluoroethyl)piperazin-1-yl)bicyclo[3.1.0]hexan-6-yl)-2-isopropyl-1H-imidazol-4-yl)-3-(trifluoromethoxy)pyridin-2-amine]
